According to publication PMC7459823, “Characterization of Five Novel Anti-MRSA Compounds Identified Using a Whole-Animal Caenorhabditis elegans/Galleria mellonella Sequential-Screening Approach” (Antibiotics, 2020):
Values after ≈ are worked out from the molar mass of the structure shown. Read-outs that look alike come from different tables or passages of the source.

Columns and labels:
[1] = tested on: clinical S. aureus isolate BF2; assay: Broth microdilution MIC, clinical S. aureus isolate BF2; format: cell-based; conditions: Staphylococcus aureus; BF2; read-out: MIC
Procedure: (§1) In vitro antibacterial activities were determined using the broth microdilution method. Assays were performed as described in Clinical and Laboratory Standards Institute protocols in triplicate using cation-adjusted Muller–Hinton broth (Becton Dickinson and Company, Franklin Lakes, NJ, USA) in 96-well plates with a total assay volume of 100 µL. Two-fold serial dilutions of test compounds were prepared over the concentration range of 1–64 µg/mL. The bacterial concentration was adjusted to OD600 = 0.06. […] A 10 µL aliquot from each well in the MIC assays was plated onto Muller–Hinton agar (Becton Dickinson and Company, Franklin Lakes, NJ, USA) and incubated overnight at 37 °C. The lowest concentration of compound for which no growth was observed on agar plates was reported as the minimal bactericidal concentration (MBC).

MRSA MW2 [2] = assay: Sytox green membrane permeabilization; format: cell-based, Staphylococcus aureus; conditions: compounds at 64 µg/mL, monitored over 1 h
Procedure: To determine whether the compounds target bacterial membranes, MRSA MW2 was treated with the compounds and uptake of the membrane-impermeable DNA-binding fluorescent dye Sytox green was monitored over 1 h (Figure 4).
Sytox Green (Life Technologies, Needham, MA, USA) membrane permeabilization assays were performed as previously described. The experiments were carried out in duplicate in 96-well plates. Cells were grown to log phase and were harvested by centrifuging at 3700× g for 5 min. The cells were washed twice with PBS and resuspended to OD600 = 0.2, following which 5 µM Sytox green was added to the cells and the bacteria-dye mixture were incubated in the dark for 30 mins.
Cell suspensions (50 µL) were added to 50 µL of test compounds (64 µg/mL in PBS) and fluorescence intensity was measured (excitation 485 nm, emission 530 nm) periodically over 60 min.

[3] = tested on: clinical S. aureus isolate BF3; assay: Broth microdilution MIC, clinical S. aureus isolate BF3; format: cell-based; conditions: Staphylococcus aureus; BF3; read-out: MIC
Procedure: as §1

[4] = tested on: MRSA-MW2 infection of C. elegans; assay: C. elegans–MRSA-MW2 high-throughput screen (Z-score, alive versus dead worms); format: in vivo, Caenorhabditis elegans; conditions: screening concentration 2.86 µg/mL, hits Z > 2
Text: The five compounds: (4,4′,4″-(4-propyl-[1H]-pyrazole-1,3,5-triyl)trisphenol, PPT; (1S,2S)-2-[2-[[3-(1H-benzimidazol-2-yl)propyl]methylamino]ethyl]-6-fluoro-1,2,3,4-tetrahydro-1-(1-methylethyl)-2- naphthalenyl cyclopropanecarboxylate dihydrochloride, NNC; 4,5,6,7-tetrabromobenzotriazole, TBB; 3-[2-[2-chloro-4-[3-(2,6-dichlorophenyl)-5-(1-methylethyl)-4-isoxazolyl]methoxy]phenyl] ethenyl] benzoic acid, GW4064; and N-(cyclopropylmethoxy)-3,4,5-trifluoro-2-[(4-iodo-2-methylphenyl)amino] benzamide, PD198306) were purchased from Tocris Bioscience at the following levels of purity: PPT: >99.7%, NNC: >98%, TBB: >99%, GW4064: >97%, and PD198306: 98.8%. […] Hits were identified based on Z-scores. Z-scores are calculated from the ratio of alive versus dead worms after treatment with test compounds and represents the number of standard deviations (SD) the test compound differs from the mean using the formula Z = (x − μ)/σ; where x is the raw sample score, μ is the mean of the population and σ is the standard deviation of the population. Samples with Z > 2σ are considered hits.

MRSA MW2 [5] = assay: Broth microdilution antibacterial susceptibility (MIC/MBC), MRSA MW2; format: cell-based, Staphylococcus aureus; conditions: for MBC: MRSA MW2
Procedure: as §1

MRSA MW2 [6] = assay: Time-to-kill assay; format: cell-based, Staphylococcus aureus; conditions: MRSA MW2, compounds at 64 µg/mL, 4 hr; criteria MBC/MIC and 3 log10 CFU decrease
Text: Time-to-kill assays were used to further probe bactericidal/bacteriostatic properties against MRSA MW2 (Figure 3). Antibacterial compounds are generally considered bactericidal, if the MBC is no more than four times higher than the MIC. Bactericidal activity is defined as greater than 3 log10 -fold decrease in colony forming units, which is equivalent to 99.9% killing of the inoculum. If the MBC is outside this range, compounds are bacteriostatic. According to these criteria, all five compounds were bacteriostatic.
Time-to-kill assays were performed as previously described. Briefly, overnight cultures of MRSA-MW2 were diluted in fresh Tryptic Soy Broth (TSB) to a density of 10^8 cells/mL and placed into 10 mL tubes (Becton Dickinson and Company, Franklin Lakes, NJ, USA). Test compounds dissolved in DMSO over the concentration range 4–64 µg/mL were added and the tubes incubated at 37 °C. At periodic intervals, aliquots from each tube were serially diluted with TSB and plated onto tryptic soy agar (TSA) (Becton Dickinson and Company, Franklin Lakes, NJ, USA). CFUs were enumerated after overnight incubation at 37 °C. Assays were carried out in triplicate.

MKN-28 = conditions: human, 24 h
Procedure: (§2) Mammalian cell lines HepG2 (hepatic cells), A549 (epithelial cells), and MKN-28 (gastric cells) were used to measure the anti-proliferative properties of test compounds, as described elsewhere [28]. Cells were grown in Dulbecco’s Modified Eagle Medium (DMEM) (Gibco, Waltham, MA, USA) supplemented with 10% Fetal Bovine Serum (FBS) (Gibco, Waltham, MA, USA) and 1% penicillin/streptomycin (Gibco, Waltham, MA, USA) and maintained at 37 °C in 5% CO2. After harvesting, the cells were suspended in DMEM and 100 µL was added to the wells of 96-well plates. The test compounds were serially diluted in serum and antibiotic free DMEM, added to the monolayer of cells, and incubated at 37 °C in 5% CO2 for 24 hr. Percentage survival was calculated by comparison to DMSO-treated vehicle controls. Assays were carried out in triplicate.

Pseudomonas aeruginosa = assay: Broth microdilution MIC, Pseudomonas aeruginosa; format: cell-based; conditions: read-out: MIC
Procedure: as §1

HepG2 = conditions: human, 24 h
Procedure: as §2

A549 = conditions: human, 24 h
Procedure: as §2

Klebsiella pneumoniae = assay: Broth microdilution MIC, Klebsiella pneumoniae; format: cell-based; conditions: read-out: MIC
Procedure: as §1

MRSA-MW2 = assay: Checkerboard synergy assay (FIC index); format: cell-based, Staphylococcus aureus; conditions: synergy FIC ≤ 0.5
Procedure: The combination of two antibiotics with different modes of action can reduce bacterial resistance and sometimes even restore clinical efficacy of an antibiotic that has lost effectiveness. The five compounds were tested against MRSA-MW2 in the presence of five clinical antibiotics from different classes (i.e., polymyxin B, gentamycin, erythromycin, doxycycline, and oxacillin).
Antibacterial synergy for combinations of the compounds with each other and with clinical antibiotics (doxycycline, gentamicin, polymyxin-B, oxacillin, and erythromycin) was measured using checkerboard assays. In short, Cultures of MRSA-MW2 were adjusted to OD600 = 0.06 and one compound was arrayed horizontally and other vertically in 96 well plates. The assays were carried out in triplicate, exactly as described for the antibacterial susceptibility assays. The inhibitory effects of compound combinations were evaluated using the Fractional Inhibitory Concentration (FIC) index, derived from the formula:FIC index = FICA + FICB = [A]/MICA + [B]/MICB
MIC of substance A tested in combination /MIC of substance A tested alone + MIC of substance B tested in combination/MIC of substance B tested alone. Synergy is indicated when FIC ≤ 0.5, indifference when 0.5 ≤ FIC ≤ 4, and antagonism when FIC > 4. Experiments were performed in duplicate and report the average FIC index.

Enterobactor aerogens = assay: Broth microdilution MIC, Enterobactor aerogens; format: cell-based; conditions: Enterobactor aerogens; read-out: MIC
Procedure: as §1

SMILES: Cc1cc(I)ccc1Nc1c(C(=O)NOCC2CC2)cc(F)c(F)c1F [PD198306, N-(Cyclopropylmethoxy)-3,4,5-trifluoro-2-[(4-iodo-2-methylphenyl)amino]-benzamide]
- MIC [1]: 2 µg/mL (≈ 4.2 µM)
- cellular fluorescence (Sytox green uptake) (MRSA MW2 [2]): no changes in cellular fluorescence
- MIC [3]: 2 µg/mL (≈ 4.2 µM)
- Z-Score [4]: 3.43
- MBC (MRSA MW2 [5]): >64 µg/mL
- MIC (MRSA MW2 [5]; Staphylococcus aureus, MRSA MW2, 18 h, 37 °C, read-out: MIC): 2 µg/mL (≈ 4.2 µM)
- MBC (MRSA MW2 [5]; Staphylococcus aureus, read-out: MBC): > 64 µg/mL
- bactericidal/bacteriostatic classification (MRSA MW2 [6]): bacteriostatic
- Eukaryotic cell cytotoxicity (MKN-28): 16 µg/mL
- MIC (Pseudomonas aeruginosa): > 64 µg/mL
- Eukaryotic cell cytotoxicity (HepG2): 2 µg/mL
- Eukaryotic cell cytotoxicity (A549): 16 µg/mL
- MIC (Klebsiella pneumoniae): > 64 µg/mL
- Fractional Inhibitory Concentration (FIC) Index (MRSA-MW2; with Doxycycline): 2.0
- Fractional Inhibitory Concentration (FIC) Index (MRSA-MW2; with Erythromycin): 0.5
- Fractional Inhibitory Concentration (FIC) Index (MRSA-MW2; with Gentamycin): 0.625
- Fractional Inhibitory Concentration (FIC) Index (MRSA-MW2; with Oxacillin): 0.75
- Fractional Inhibitory Concentration (FIC) Index (MRSA-MW2; with Polymyxin B): 1.0
- MIC (Enterobactor aerogens): > 64 µg/mL
